In patent publication US20090048285A1, “Pyrrolopyridines Useful in the Treatment of Inflammation” (priority 2005, published 2009) one finds IC50 data, which are given here for 2 compounds.

The target in the assay is T1, mPGES-1 (Homo sapiens, UniProt O14684).
T1 construct: made in house; host or cells: E. coli (membrane fraction)
T1 sequence (O14684 1-152): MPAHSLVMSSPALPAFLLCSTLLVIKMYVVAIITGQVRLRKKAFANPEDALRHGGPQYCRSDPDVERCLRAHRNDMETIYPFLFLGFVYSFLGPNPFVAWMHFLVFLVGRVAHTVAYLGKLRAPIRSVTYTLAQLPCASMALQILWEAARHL
Put plainly: mPGES-1 assay: conversion of PGH2 to PGE2, HPLC analysis. The class given is biochemical. As to conditions: mPGES-1 expressed in E. coli; 25 min preincubation with inhibitor, 60 s with PGH2, room temperature. How it is done:
In the assay in PGES-1 catalyses the reaction where the substrate PGH2 is converted to PGE2. mPGES-1 is expressed in E. coli and the membrane fraction is dissolved in 20 mM NaPi-buffer pH 8.0 and stored at −80° C. In the assay mPGES-1 is dissolved in 0.1M KPi-buffer pH 7.35 with 2.5 mM glutathione. The stop solution consists of H2O/MeCN (7/3), containing FeCl2 (25 mM) and HCl (0.15 M). The assay is performed at room temperature in 96-well plates. Analysis of the amount of PGE2 is performed with reversed phase HPLC (Waters 2795 equipped with a 3.9×150 mm C18 column). The mobile phase consists of H2O/MeCN (7/3), containing TFA (0.056%), and absorbance is measured at 195 nm with a Waters 2487 LTV-detector.
The following is added chronologically to each well: • 1. 100 μL mPGES-1 in KPi-buffer with glutathione. Total protein concentration: 0.02 mg/mL. • 2. 1 μL inhibitor in DMSO. Incubation of the plate at room temperature for 25 minutes. • 3. 4 μL of a 0.25 mM PGH2 solution. Incubation of the plate at room temperature for 60 seconds. • 4. 100 μL stop solution. • 180 μL per sample is analyzed with HPLC.

As usually defined, the IC50 is the concentration that gives 50% inhibition.

The compound `CC(C)Oc1ccc(-n2c(C(=O)O)cc3cc(Oc4cccc(C(F)(F)F)c4)ncc32)cc1` [Example 1, 1-(4-Isopropoxyphenyl)-5-(3-trifluoromethylphenoxy)pyrrolo[2,3-c]pyridine-2-carboxylic Acid] returned an IC50 of 2300 nM.

In turn, `CC(C)Oc1ccc(-n2c(C(=O)O)cc3c(-c4ccc(C(F)(F)F)cc4)nc(Cl)cc32)cc1` [Example 3, 6-Chloro-1-(4-isopropoxyphenyl)-4-(4-trifluoromethylphenyl)pyrrolo[3,2-c]pyridine-2-carboxylic acid] registered an IC50 of 750 nM. This IC50 lies about 3.1-fold lower than the previous one.
